Reference: publication PMC6155728, “Design, Synthesis and Evaluation of Indene Derivatives as Retinoic Acid Receptor α Agonists” (Molecules : A Journal of Synthetic Chemistry and Natural …, 2016)
Several values for one entry are separate records, joined by “and”; a condition that tells them apart may be missing. Equal values may be shown once. Read-outs that look alike come from different tables or passages of the source.

Key:
[1] = system: HL60 cells; assay: Inhibition of cell proliferation assay (SRB), HL60; type: cell-based; conditions: Homo sapiens, read-out: IC50 cell proliferation HL60
Description: (§1) Human promyelocytic leukemia cell lines HL60 and NB4 were employed to determine the effects of the derivatives on cell proliferation. […] Alkoxy-substitution at the 2-position (i.e., compounds 36f, 36g) harmed the cell proliferation inhibitory activity of the compounds in both cell lines while the isopropyl group at the same position (compound 36h) is favourable. The extension of the π system by an alkenyl bond or a ketone group, as in 36j–l, didn’t affect the compounds’ inhibitory activity in HL60 cells but nulified their activity in NB4 cells. The indene ring tolerates the dual-introduction of a small alkoxyl and an alkyl group at 1- and 2-position, respectively, to retain the antiproliferative activity in HL60 cells.
(§2) Cells were seeded in 96-well plates (Corning Inc.) with a density of 2500 cells (NB4 or HL60) per well for overnight. Then, cells were exposed to each of the test compounds 36a–36p in gradient concentration of 10^−9, 10^−8, 10^−7, 10^−6, 10^−5 mol/L. Control cultures were treated with the same volume of DMSO. After 72 hours of incubation, the cell density in each well were fixed by trichloroacetic acid and then measured using the SRB (sulforhodamine B) method. After rinsing, the SRB was solubilized in TrisHCl, and the optical density of each culture was determined with a Bio-Tek Elx 800 absorbance microplate reader (BioTek, Shoreline, WA, USA). The OD of the treated cultures was divided by that of the control cultures treated with solvent alone.

[2] = system: NB4 cells; assay: Inhibition of cell proliferation assay (SRB), NB4; type: cell-based, human; conditions: read-out: IC50 cell proliferation NB4
Description: as §1, §2

[3] = system: HL60 cells; assay: Cell differentiation assay (CD11b, FACS), HL60; type: cell-based, human
Description: (§3) The effects of 36a–g on the differentiation of HL60 and NB4 cells were then assessed.
(§4) Cells (1 × 10^6/mL) were treated with compounds at different concentrations based on IC50 in Table 2 […]. After the treatment, cells were washed twice with PBS and then fixed with 75% alcohol overnight at −20 °C. The fixed cells were washed with PBS and blocked with 95 μL 3% BSA in PBS for 45 min at room temperature. The cells were incubated with 5 μL CD11b-PE at 4 °C for 45 min with protection from light. The antigens were then determined by a FACSCalibur flow cytometer (BD Biosciences Pharmingen, San Diego, CA, USA). The percentages of positive cells were quantitated using CellQuest Pro software. Cells stained with mouse IgG-PE served as negative controls. Both CD11b-PE and mouse IgG-PE antibodies were purchased from BD Biosciences. At least 10,000 cells were analyzed for each data point.

[4] = system: NB4 cells; assay: Cell differentiation assay (CD11b, FACS), NB4; type: cell-based, human
Description: as §3, §4

[5] = biological target: T1, RARα (RAR alpha LBD-GST) (Homo sapiens, UniProt P10276); assay: Receptor binding assay (LanthaScreen TR-FRET RAR alpha Coactivator Assay); conditions: 1 h incubation, AM80 positive control, read-out: RARα binding affinity EC50
T1 construct: A mixture of 5 nM RAR alpha LBD-GST, 5 nM TbAnti-GST antibody, 50 nM Fluorescein-D22 was added to the wells; purchased Invitrogen
T1 sequence (P10276 183-417 limits assumed): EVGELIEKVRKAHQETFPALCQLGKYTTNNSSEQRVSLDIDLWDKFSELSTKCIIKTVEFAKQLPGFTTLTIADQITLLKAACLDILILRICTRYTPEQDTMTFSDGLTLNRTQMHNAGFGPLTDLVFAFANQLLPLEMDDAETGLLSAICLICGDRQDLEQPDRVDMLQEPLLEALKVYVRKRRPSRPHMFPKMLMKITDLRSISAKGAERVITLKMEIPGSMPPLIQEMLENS
Description: The obtained target compounds were tested for their binding affinities to RARα using a time resolved fluorescence resonance energy transfer (TR-FRET) assay with AM80 as the positive control.
All synthesized compounds were tested for their binding affinity by using time resolved fluorescence resonance energy transfer (TR-FRET) assay, which used a LanthaScreen® TR-FRET RAR alpha Coactivator Assay Kit (Invitrogen, Carlsbad, CA, USA). Briefly, all experiments were performed in black 384-well low-volume plates (Corning Inc., Corning, NY, USA) in dark at room temperature. The final assay volume was 20 μL. All dilutions were made in assay buffer (TR-FRET Coregulator Buffer D). The final DMSO concentration was 1%. A mixture of 5 nM RAR alpha LBD-GST, 5 nM TbAnti-GST antibody, 50 nM Fluorescein-D22 was added to the wells. The only variable is the agonist concentration (6.1 × 10^−11~1.0 × 10^−6 M final concentrations of each retinoid). […] Data were analyzed by using GraphPad Prism software (GraphPad Software, Inc., La Jolla, CA, USA) and FRET signal was determined for all treatments by dividing 520 nm/495 nm signals. Graphs plotted as fold change of FRET signal for compounds treatment over DMSO only treatment.

[6] = HL-60, HL60 cells, 72 hours, SRB
[7] = Homo sapiens, NB-4, 72 h, NB4 cells, 72 hours, SRB

Compound	EC50 [5] [µM]	IC50 [1, 6] [µM]	melting point [°C]	IC50 ([1]; HL-60, 72 h) [µM]	IC50 ([2]; Homo sapiens, NB-4, 72 h) [µM]	CD11b (%) HL60 ([3]; 10 μM)	CD11b (%) NB4 ([4]; 10 μM)	IC50 [2, 7] [µM]	CD11b (%) HL60 ([3]; 50 μM)	CD11b (%) NB4 ([4]; 5 μM)	IC50 ([2]; NB4 cells, 72 hours, SRB) [µM]	CD11b (%) NB4 ([4]; 20 μM)
CC1(C)CCC(C)(C)c2cc(NC(=O)c3ccc(C(=O)O)cc3)ccc21 [AM80, reference compound]				0.17	13.3	4.59 (10 μM) %	94.93 (10 μM) %					
O=C(O)c1ccc(C(=O)Nc2ccc3c(c2)CCC3)cc1 [Compound 36a, 4-((2,3-Dihydro-1H-inden-5-yl)carbamoyl)benzoic acid]	0.0121	> 50	> 250					6.97	1.13 (50 μM) %	0.97 (5 μM) %		
COC1CCc2ccc(NC(=O)c3ccc(C(=O)O)cc3)cc21 (stereo not drawn) [Compound 36b, 4-((3-Methoxy-2,3-dihydro-1H-inden-5-yl)carbamoyl)benzoic acid]	0.13	0.13	> 250					35.4				
CCCCOC1CCc2ccc(NC(=O)c3ccc(C(=O)O)cc3)cc21 (stereo not drawn) [Compound 36e, 4-((3-Butoxy-2,3-dihydro-1H-inden-5-yl)carbamoyl)benzoic acid]	0.0149	> 50	> 250						2.87 (50 μM) %	15.42 (5 μM) %		
CCOC1Cc2ccc(NC(=O)c3ccc(C(=O)O)cc3)cc2C1 (stereo not drawn) [Compound 36g, 4-((2-Ethoxy-2,3-dihydro-1H-inden-5-yl)carbamoyl)benzoic acid]	> 1	> 50	> 250					22	5.82 (50 μM) %			0.49 (20 μM) %
CC(C)C1Cc2ccc(NC(=O)c3ccc(C(=O)O)cc3)cc2C1 (stereo not drawn) [Compound 36h, 4-((2-Isopropyl-2,3-dihydro-1H-inden-5-yl)carbamoyl)benzoic acid]	0.043	0.91	> 250					2.61				
CC(C)C1=Cc2cc(NC(=O)c3ccc(C(=O)O)cc3)ccc2C1 [Compound 36j, 4-((2-Isopropyl-1H-inden-5-yl)carbamoyl)benzoic acid]	0.00353	2.37	> 250					> 50				
CC1Cc2ccc(NC(=O)c3ccc(C(=O)O)cc3)cc2C1=O (stereo not drawn) [Compound 36k, 4-((2-Methyl-3-oxo-2,3-dihydro-1H-inden-5-yl)carbamoyl)benzoic acid]		2.66	> 250					> 50				
COC1c2cc(NC(=O)c3ccc(C(=O)O)cc3)ccc2CC1C (stereo not drawn) [Compound 36m, 4-((3-Methoxy-2-methyl-2,3-dihydro-1H-inden-5-yl)carbamoyl)benzoic acid]	0.292	0.43	> 250					> 50				
CCOC1c2cc(NC(=O)c3ccc(C(=O)O)cc3)ccc2CC1C(C)C (stereo not drawn) [Compound 36p, 4-((3-Ethoxy-2-isopropyl-2,3-dihydro-1H-inden-5-yl)carbamoyl)benzoic acid]	0.00903	1.13	> 250					7.56				

Further lines, with some results ahead:

EC50 [5] [µM]	IC50 [1, 6] [µM]	melting point [°C]	Compound	IC50 ([1]; HL-60, 72 h) [µM]	IC50 ([2]; Homo sapiens, NB-4, 72 h) [µM]	CD11b (%) HL60 ([3]; 10 μM)	CD11b (%) NB4 ([4]; 10 μM)	IC50 [2, 7] [µM]	CD11b (%) HL60 ([3]; 50 μM)	CD11b (%) NB4 ([4]; 5 μM)	IC50 ([2]; NB4 cells, 72 hours, SRB) [µM]	CD11b (%) NB4 ([4]; 20 μM)
		> 250	CCOC1CCc2ccc(NC(=O)c3ccc(C(=O)O)cc3)cc21 (stereo not drawn) [Compound 36c]									
0.0243	> 50	> 250	CC(C)OC1CCc2ccc(NC(=O)c3ccc(C(=O)O)cc3)cc21 (stereo not drawn) [Compound 36d, 4-((3-Isopropoxy-2,3-dihydro-1H-inden-5-yl)carbamoyl)benzoic acid]					1.86 to 4.09	3.77 (50 μM) %	68.88% and 68.88 (5 μM) %	1.86	
> 1	> 50	> 250	COC1Cc2ccc(NC(=O)c3ccc(C(=O)O)cc3)cc2C1 (stereo not drawn) [Compound 36f, 4-((2-Methoxy-2,3-dihydro-1H-inden-5-yl)carbamoyl)benzoic acid]					> 50				
0.0141	> 50	> 250	CC1=Cc2cc(NC(=O)c3ccc(C(=O)O)cc3)ccc2C1 [Compound 36i, 4-((2-Methyl-1H-inden-5-yl)carbamoyl)benzoic acid]					> 50				
0.00468	2.11	> 250	CC(C)C1Cc2ccc(NC(=O)c3ccc(C(=O)O)cc3)cc2C1=O (stereo not drawn) [Compound 36l, 4-((2-Isopropyl-3-oxo-2,3-dihydro-1H-inden-5-yl)carbamoyl)benzoic acid]					36.9				
0.146	0.8	> 250	CCOC1c2cc(NC(=O)c3ccc(C(=O)O)cc3)ccc2CC1C (stereo not drawn) [Compound 36n, 4-((3-Ethoxy-2-methyl-2,3-dihydro-1H-inden-5-yl)carbamoyl)benzoic acid]					8.51				
0.00393	2.35	> 250	COC1c2cc(NC(=O)c3ccc(C(=O)O)cc3)ccc2CC1C(C)C (stereo not drawn) [Compound 36o, 4-((2-Isopropyl-3-methoxy-2,3-dihydro-1H-inden-5-yl)carbamoyl)benzoic acid]					> 50				
